From patent US20240190920A1, “BECLIN 1-TARGETED STAPLED PEPTIDE AND PHARMACEUTICAL COMPOSITION” (Shenzhen Research Institute of the Hong Kong Polytechnic …, priority 2021, published 2024) come the findings set out here.

The test system of series [1] is HER2. The experiment in a line: EGF-induced endolysosomal degradation of HER2, Western blot. Type of series: cell-based. Particulars: SKBR3, 2 μM. The procedure:
(§1) FIG. 9 is a schematic diagram of the result showing peptides based on (I7-01s) scaffold are potent inducers of endolysosomal trafficking. (a-c) Western blot to assess the HER2 and EGFR levels in SKBR3 cells. Cells are starved overnight and are treated with 200 ng/ml EGF respectively with vehicle control (a), 2 μM Tat-SP4 (b), 2 μM i7-01s-31 (c). (d & e) Time-dependent plots to quantify HER2 and EGFR degradation profiles after three independent experiments. The levels of HER2 (d) and EGFR (e) are normalized to the β-actin level at different time points and then further normalized to time 0, when the ligand EGF is added. Data are presented as mean±SEM (n=3).
In some embodiments, the Beclin 1-targeting stapled peptide provided by the present disclosure can effectively promote endolysosomal trafficking. As a scaffolding member of the PI3KC3 complex, Beclin 1 is essential for multiple PI3KC3-dependent processes including autophagy, endolysosomal trafficking and phagocytosis. To assess the efficacy of the newly designed peptides on the endolysosomal trafficking process, the ligand-induced endolysosomal degradation of cell surface receptors HER2 and EGFR is characterized by western blotting using SKBR3 breast cancer cell line that over-expresses both EGFR and HER2. […] In contrast, i7-01s-31 treatment at 2 μM results in significant reduction of HER2 level, with about 50% decrease at 15 hours post EGF stimulation, and about 70% decrease at 24 hours (as shown in FIGS. 9c & 9d). i7-01s-31 treatment also strongly promotes EGFR degradation, with approximately 60% reduction at 15 hours post EGF stimulation (as shown in FIGS. 9c & 9e).
Whole cell lysates are extracted using Laemmli sample buffer (62.5 mM Tris-HCl, pH 6.8, 2% SDS, 25% glycerol, 5% β-mercaptoethanol) supplemented with EDTA-free protease inhibitor cocktail (Roche). Protein concentration is determined using a standard Bradford assay before immunoblotting. Protein samples are separated by SDS-PAGE, transferred to a PVDF membrane (Millipore, USA), and incubated with the primary antibodies and HRP-conjugated secondary antibodies. […]

The subject of series [2] is EGFR. Nature of the series: EGF-induced endolysosomal degradation of EGFR, Western blot. Particulars: SKBR3, 2 μM, 15 hours post EGF stimulation. It is filed as cell-based. The procedure:
as §1
In some embodiments, the Beclin 1-targeting stapled peptide provided by the present disclosure can effectively promote endolysosomal trafficking. As a scaffolding member of the PI3KC3 complex, Beclin 1 is essential for multiple PI3KC3-dependent processes including autophagy, endolysosomal trafficking and phagocytosis. […]
Whole cell lysates are extracted using Laemmli sample buffer (62.5 mM Tris-HCl, pH 6.8, 2% SDS, 25% glycerol, 5% β-mercaptoethanol) supplemented with EDTA-free protease inhibitor cocktail (Roche). Protein concentration is determined using a standard Bradford assay before immunoblotting. […]

Series [3] has as its target T1, Beclin 1 coiled coil domain (Homo sapiens, UniProt Q14457).
T1 construct: the coiled coil domain of human Beclin 1 (residues 176-268); thioredoxin-6xHis fusion tag with HRV 3C protease cleavage site; made in house; host or cells: Escherichia coli BL21(DE3)
The experiment in a line: Isothermal titration calorimetry (ITC) binding affinity. Particulars: 25° C., pH 7.4, Tat-fused peptide, read-out: Kd. The procedure:
The expression and purification of Beclin 1 coiled coil domain is performed as described previously. Briefly, the coiled coil domain of human Beclin 1 (residues 176-268) is cloned into the modified pET32a vector containing the human rhinovirus (HRV) 3C protease cleavage site and thioredoxin-6×His fusion tag. Recombinant protein for the Beclin1 coiled oil domain is expressed in Escherichia coli BL21(DE3) and purified by Ni^2+-NTA affinity chromatography (His Trap HP, GE Healthcare) first and followed by size-exclusion chromatography (Superdex 75, GE Healthcare).
ITC assays are carried out by MicroCal PEAQ-ITC Automated (Marvern) at 25° C. All designed peptides and purified protein for the Beclin 1 coiled coil domain are dialyzed into the buffer containing 50 mM Tris, 150 mM NaCl at pH 7.4. For each titration assay, the injection syringe is loaded with 40 μl of peptide and the cell is loaded with Beclin 1 coiled coil domain protein. Typically, titrations consist of 19 injections, and each injection is performed at a time interval of 180 seconds to ensure that the titration peak returns to the baseline. The titration data are analyzed using the MicroCal PEAQ-ITC Analysis software and fitted by the one-site binding model.

Series [4] has as its system HEK293T cells. The experiment in a line: Trypan blue exclusion cytotoxicity assay in HEK293T cells. Type of series: cell-based. The procedure:
FIG. 7 is a schematic diagram of the result of evaluating the cytotoxicity of the newly designed stapled peptide on HEK293T cells by the trypan blue exclusion assay.
Cell viability is measured by trypan blue exclusion assay following the standard protocol provided by the manufacturer. SKBR3 cells are seeded on 96-well plates containing complete medium at a density of 1×10^4 cells per well. Upon cell attachment, cells are treated with the indicated stapled peptide or vehicle control for 24 hours. Afterwards, the number of trypan blue positive staining cells and the number of total cells are manually counted under a light microscope (Olympus). Cell viability is calculated as the number of viable cells divided by the total number of cells. All experiments are repeated in triplicate and the mean is calculated.

In series [5] the test system is SKBR3 cells. The experiment in a line: Flow cytometry with Annexin V FITC-PI staining. It is filed as cell-based. The procedure:
FIG. 12 is a schematic diagram of the result showing the peptides based on strategy (i7-01s) scaffold induce cell death with necrotic features. Flow cytometry analysis with Annexin V FITC-PI staining is performed in SKBR3 cells after treatment of the indicated peptides for 24 hours.
The degree of cellular apoptosis and necrosis is assessed by flow cytometry following the standard protocol provided by the manufacturer. Briefly, SKBR3 cells after the indicated peptide treatment are harvested by trypsin, labelled with Annexin V and PI (Invitrogen), subjected to flow cytometer system (BD Accuri C6), and analyzed by BD Accuri C6 software. The cell populations can be distinguished by the staining of Annexin V/PI. Typically, cellular population in the lower left quadrant is live cells (Annexin V^−, PI^−), the lower right quadrant represents early apoptotic cells (Annexin V^+, PI^−), the upper right quadrant represents late apoptotic cells (Annexin V^+, PI^+), the upper left quadrant represents necrotic cells (Annexin V^−, PI^+).

Series [6] concerns HEK293T cells. Nature of the series: Western blot of autophagy markers LC3 and p62. Type of series: cell-based. As for the experimental part: FIG. 8 is a schematic diagram showing that the peptides based on the i7-01s scaffold are effective inducers of autophagy. (a) Western blot to assess the p62 level and LC3 lipidation profile in HEK293T cells after treatment with 10- and 20-μM i7-01s-31 for 3 hours, in the presence or absence of CQ. (b)&(c) Quantification of LC3 lipidation profiles from the Western blot data. (d)&(e) Quantification of p62 levels from the Western blot data from (a).
The impact of these two peptides on cellular autophagic activity is examined by detecting the protein levels of LC3 and p62, two molecular markers of autophagy. During the autophagy process, cytosolic protein LC3 is converted from its apo form (LC3-I) to lipidated form (LC3-II) for accumulation on autophagosomes. Thus, an increase in LC3-II level is regarded as a reliable indicator of elevated cellular autophagic activity. Similarly, p62 is an autophagy receptor that is degraded in the lysosome together with autophagic substrates. A decrease in p62 level is also commonly used as an indicator for higher autophagic activity, although some studies have shown that p62 is not as sensitive as LC3-II.
Whole cell lysates are extracted using Laemmli sample buffer (62.5 mM Tris-HCl, pH 6.8, 2% SDS, 25% glycerol, 5% β-mercaptoethanol) supplemented with EDTA-free protease inhibitor cocktail (Roche). Protein concentration is determined using a standard Bradford assay before immunoblotting. Protein samples are separated by SDS-PAGE, transferred to a PVDF membrane (Millipore, USA), and incubated with the primary antibodies and HRP-conjugated secondary antibodies. Protein bands are visualized using ECL reagents. β-actin is used as the internal reference protein to control the loading amount of SDS-PAGE.

In series [7] the test system is SKBR3 cells. The experiment in a line: Trypan blue exclusion assay, IC50 in SKBR3 cells. It is filed as cell-based. The following applies: SKBR3, 24h. As for the experimental part:
(§2) (a) Trypan blue exclusion assay to assess the cytotoxicity IC50 (half maximal inhibitory concentration) of the indicated peptides in SKBR3 cells. Cells are treated with various concentrations of the indicated peptides for 24h. Cell numbers are manually counted by the trypan blue exclusion assay using a hemocytometer. Data are presented as mean±SD from three independent experiments. (b-d) Cell proliferation assay is performed over a time span of five days in SKBR3 cells after treatment with the indicated peptides. Cells are treated with the indicated peptides at day 0 and the cell number is calculated at the given time points. The assay is performed in 96 well plates with three independent measurements. Tat-SC4 is a control peptide with scrambled Tat-SP4 sequence but without the hydrocarbon staple.
Cell viability is measured by trypan blue exclusion assay following the standard protocol provided by the manufacturer. SKBR3 cells are seeded on 96-well plates containing complete medium at a density of 1×10^4 cells per well. […] Afterwards, the number of trypan blue positive staining cells and the number of total cells are manually counted under a light microscope (Olympus). Cell viability is calculated as the number of viable cells divided by the total number of cells. All experiments are repeated in triplicate and the mean is calculated.

The subject of series [8] is SKBR3 cells. Nature of the series: Five-day cell proliferation assay. The following applies: SKBR3, five days, 10 μM. It is filed as cell-based. As for the experimental part: as §2

Entries after “also recorded” stand apart in the source; their conditions may differ. Bridge positions count the residues as written; N and C are the ends. Square brackets hold non-standard residues; d marks the D form. Peptide text beside a SMILES is read from it. R8 = C=CCCCCCC[C@@](C)(N)C(=O)O; S5 = C=CCCC[C@](C)(N)C(=O)O

T1 sequence (Q14457 176-268): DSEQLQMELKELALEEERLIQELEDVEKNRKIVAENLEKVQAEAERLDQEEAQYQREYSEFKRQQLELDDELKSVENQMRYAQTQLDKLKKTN

As for `CC[C@H](C)[C@@H]1NC(=O)[C@H](C(C)C)NC(=O)[C@H](CC(=O)O)NC(=O)[C@H](C(C)C)NC(=O)[C@H](CC(C)C)NC(=O)[C@](C)(NC(=O)[C@H](CC(N)=O)NC(=O)[C@H](Cc2ccccc2)NC(=O)[C@H](CC(C)C)NC(=O)[C@@H](NC(=O)[C@H](CCCNC(=N)N)NC(=O)[C@H](CCCNC(=N)N)NC(=O)[C@H](CCCNC(=N)N)NC(=O)[C@H](CCC(N)=O)NC(=O)[C@H](CCCNC(=N)N)NC(=O)[C@H](CCCNC(=N)N)NC(=O)[C@H](CCCCN)NC(=O)[C@H](CCCCN)NC(=O)[C@H](CCCNC(=N)N)NC(=O)CNC(=O)[C@H](Cc2ccc(O)cc2)NC(C)=O)C(C)C)CCCCCCC=CCCC[C@@](C)(C(=O)N[C@@H](CCCNC(=N)N)C(=O)N[C@@H](CCCCN)C(=O)N[C@H](C(N)=O)C(C)C)NC(=O)[C@H](CCCCN)NC1=O` [i7-01s-31] (Ac-YGRKKRRQRRRVLFN[R8]LVDVIK[S5]RKV-NH2; staple 16-23), the figures for the “decrease of HER2 level” value in series [1] (15 hours post EGF stimulation) and in series [1] (24 hours post EGF stimulation) were “about 50%” and “about 70%”, respectively. Besides, the “reduction of EGFR” value in series [2] is given as “approximately 60%”. Moreover, the equilibrium dissociation constant (Kd) in series [3] was 330 ± 280 nM. Further, the cell viability entry in series [4] (5 μM, 24 hours) is “little impact on cell viability”. Moreover, the cytotoxicity result in series [4] (20 μM, 24 h) is on record as “negligible cytotoxicity”. Further, in series [5] (SKBR3, 10 μM, 24 hours), the PI positive cells entry is reported as “approximately 30%”. The “change of Annexin V positive cells (apoptosis)” value in series [5] (SKBR3, 24 hours) is on record as “without notable changes; also recorded: no increase”. The “change of PI positive staining cells (dead cells)” value in series [5] (SKBR3, 24 hours) is listed as “significantly increased; also recorded: significant increase”. Further, the “autophagy induction compared with Tat-SP4” value in series [6] is listed as “comparable efficacy”. The LC3-II levels result is on record as “noticeable albeit small increase” in series [6] (10 and 20 μM, 3 hours, absence of CQ); “significantly stronger” in series [6] (10 and 20 μM, 3 hours, presence of chloroquine (CQ)). For the same compound, the “protein level of p62” value in series [6] (10 and 20 μM, 3 hours, presence or absence of CQ) is “does not show any noticeable change”. For the same compound, the IC50 in series [7] stood at 7.12 µM. In addition, in series [8], the “effect on cell proliferation” value is “completely abolish cell proliferation”.
